In general, inhibition refers to the share of the control response that was lost under treatment. The term IC50 denotes the midpoint of a concentration-inhibition curve.

The species entered for one data set is Homo sapiens. The data set can be described thus: Selectivity index, ratio of IC50 for human MAO-B to IC50 for human MAO-A.
For data set [1], the target named is T1, Amine oxidase [flavin-containing] B (Homo sapiens, UniProt P27338).
T1 sequence (P27338 whole entry): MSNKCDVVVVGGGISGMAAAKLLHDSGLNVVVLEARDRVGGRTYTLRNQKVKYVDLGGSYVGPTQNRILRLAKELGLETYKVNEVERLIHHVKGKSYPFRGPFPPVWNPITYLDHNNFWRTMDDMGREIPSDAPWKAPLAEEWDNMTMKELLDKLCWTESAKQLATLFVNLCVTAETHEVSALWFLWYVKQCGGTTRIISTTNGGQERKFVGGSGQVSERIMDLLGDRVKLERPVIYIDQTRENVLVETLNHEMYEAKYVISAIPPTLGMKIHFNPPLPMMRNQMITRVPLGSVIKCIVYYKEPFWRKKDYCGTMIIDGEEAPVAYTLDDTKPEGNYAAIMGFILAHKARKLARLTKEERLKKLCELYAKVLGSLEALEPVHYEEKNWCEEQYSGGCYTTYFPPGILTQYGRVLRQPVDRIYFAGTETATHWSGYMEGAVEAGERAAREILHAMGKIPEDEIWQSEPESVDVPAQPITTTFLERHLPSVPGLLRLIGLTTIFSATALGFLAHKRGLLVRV
The experiment in a line: Inhibition of human MAO-B expressed in baculovirus infected BTI-TN-5B1-4 insect cells using p-tyramine as substrate assessed as hydrogen peroxide production at 100 uM by fluorimetric method. The following applies: BTI-TN-5B1-4, human.

Data set [2] deals with T2, Amine oxidase [flavin-containing] A (Homo sapiens, UniProt P21397).
T2 sequence (P21397 whole entry): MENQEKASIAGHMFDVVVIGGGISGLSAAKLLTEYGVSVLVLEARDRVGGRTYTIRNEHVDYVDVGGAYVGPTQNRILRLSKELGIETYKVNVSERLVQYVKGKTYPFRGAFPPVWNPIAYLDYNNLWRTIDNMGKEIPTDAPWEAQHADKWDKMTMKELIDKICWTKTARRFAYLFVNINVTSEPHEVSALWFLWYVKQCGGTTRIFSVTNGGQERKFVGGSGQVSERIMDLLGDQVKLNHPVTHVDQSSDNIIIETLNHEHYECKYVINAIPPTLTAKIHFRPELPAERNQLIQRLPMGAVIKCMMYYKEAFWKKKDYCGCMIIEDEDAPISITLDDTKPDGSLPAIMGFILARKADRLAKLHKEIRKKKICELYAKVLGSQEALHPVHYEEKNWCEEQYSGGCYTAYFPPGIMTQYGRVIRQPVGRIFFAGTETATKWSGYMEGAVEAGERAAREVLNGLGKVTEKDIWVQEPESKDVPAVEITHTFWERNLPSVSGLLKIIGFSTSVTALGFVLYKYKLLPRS
The experiment in a line: Inhibition of human MAO-A expressed in baculovirus infected BTI-TN-5B1-4 insect cells using p-tyramine as substrate assessed as hydrogen peroxide production by fluorimetric method.

Data set [3] deals with T2, Amine oxidase [flavin-containing] A. The experiment in a line: Inhibition of human MAO-A expressed in baculovirus infected BTI-TN-5B1-4 insect cells using p-tyramine as substrate assessed as hydrogen peroxide production at 100 uM by fluorimetric method. The following applies: BTI-TN-5B1-4, human.
Data set [4] deals with T1, Amine oxidase [flavin-containing] B. The data set can be described thus: Inhibition of human MAO-B expressed in baculovirus infected BTI-TN-5B1-4 insect cells using p-tyramine as substrate assessed as hydrogen peroxide production at 1 mM by fluorimetric method. The note with it: bti-tn-5b1-4, 1000 µM.
Data set [5] has the same target. The experiment in a line: biochemical. It counts as cell-based, BTI-TN-5B1-4.
Description: Inhibition of human MAO-B expressed in baculovirus infected BTI-TN-5B1-4 insect cells using p-tyramine as substrate assessed as hydrogen peroxide production by fluorimetric method

SMILES strings stand for the structures.

For the molecule `C/C(=N\Nc1nc(-c2ccc3ccccc3c2)cs1)C1CCCCC1`, in the data set filed under Homo sapiens, the Ratio IC50 was more than 14.3. In data set [1], the inhibition at 100 µM was found to be 40%. In addition, in data set [2], the IC50 came to 6.95 µM.
In the case of `C/C(=N\Nc1nc(-c2ccccc2)c(C)s1)c1ccc2ccccc2c1`, the inhibition at 100 µM in data set [1] and in data set [3] was 40% throughout.
`Cc1sc(N/N=C/c2cccc3ccccc23)nc1-c1ccccc1`: the inhibition at 100 µM in data set [1] and in data set [3] was 40% throughout.
`CCCCCC/C(C)=N\Nc1nc(-c2ccc3ccccc3c2)cs1`: the Ratio IC50 in the data set filed under Homo sapiens is more than 6.25. In addition, the inhibition at 100 µM in data set [1] came to 40%. In data set [2], the IC50 was 15.8 µM.
On to `C/C(=N\Nc1nc(-c2ccc3ccccc3c2)cs1)c1ccc2ccccc2c1`, for which the inhibition at 100 µM in data set [1] and in data set [3] was 40% throughout.
Consider `O=C(NCCN1CCOCC1)c1ccc(Cl)cc1` [MOCLOBEMIDE], for which the “inhibition (INH)” value in data set [4] was “Not Active”.
Take `C(=N\Nc1nc(-c2ccc3ccccc3c2)cs1)/c1ccc2c(c1)OCO2`: the Ratio IC50 in the data set filed under Homo sapiens is more than 16.7. For the same molecule, in data set [1], the inhibition at 100 µM was found to be 40%. Further, the IC50 in data set [2] turned out to be 5.92 µM.
Regarding `C/C(=N\Nc1nc(-c2ccccc2)c(C)s1)c1nccs1`, in the data set filed under Homo sapiens, the Ratio IC50 worked out at 0.043. Further, the half-maximal inhibitory concentration (IC50) in data set [5] came out at 0.28 µM; in data set [2], 6.52 µM.
The corresponding values for `Cc1sc(NN=C2CCCCCCC2)nc1-c1ccccc1` are 0.32, 2.31 µM and 7.07 µM.
On to `C(=N\Nc1nc(-c2ccc3ccccc3c2)cs1)/c1ccncc1`, for which the Ratio IC50 in the data set listed under Homo sapiens was 0.83. Further, the half-inhibitory concentration (IC50) in data set [5] is 7.48 µM; in data set [2] it was 8.67 µM.

(Values after ChEMBL document CHEMBL3217581, “Synthesis and selective inhibition of human monoamine oxidases of a large scaffold of (4,5-substituted-thiazol-2-yl)hydrazones” (Medchemcomm, 2010).)
